Assay results as given in article PMC6433685, “Histone deacetylase inhibitor LMK235 attenuates vascular constriction and aortic remodelling in hypertension” (Journal of Cellular and Molecular Medicine, 2019).

Test system: AT1 and ACE1 mRNA
Assay: AT1 and ACE1 mRNA (qRT-PCR) in aortas of SHRs
Type: in vivo, rats
Method: For the essential hypertension animal experiment, SHRs were used. The SHR is the most used model animal model for hypertension and is generally regarded as an essential hypertension model.13 SHRs (6 weeks old, approximately 170 g) were purchased from Charles River (Yokohama, Japan). Rats were intraperitoneally administered LMK235 or vehicle every 3 days for 2 weeks (n = 4 per group).
Total RNA from aortic tissue was isolated with TRIzol reagent (Invitrogen Life Technologies), and 1 μg of RNA was used for the reverse transcription reaction with TOPscript RT DryMIX (Enzynomics, South Korea). Quantification of mRNA levels was performed with the SYBR Green PCR kit (Enzynomics, South Korea).

Cc1cc(C)cc(C(=O)NOCCCCCC(=O)NO)c1 [LMK235]
AT1 mRNA levels in aorta: not affected
